Data taken from a melting point compilation (Tetko et al.; mined from patent text by program, amines drawn as free bases though some values may be those of a salt).

Row | Structure (SMILES) | melting point
1 | COc1ccc(-c2ccnc3[nH]c4ccccc4c23)cc1 | 208 to 210 °C
2 | O=C1Nc2cc(C(F)(F)F)cnc2C1C(=O)OCc1ccccc1 (centres undefined) | > 250 °C
3 | COc1ccc(N)c(OCC(N)=O)c1 | 139 to 140 °C
4 | O=C1NCCCN1N=Cc1ccccc1 | 190 °C
5 | O=c1c(Br)c(OCc2ccccc2)ccn1Cc1ccc(OCc2ccccc2)cc1 | 138 to 144 °C
6 | CCCCOc1ccc(CCCO)c(Oc2ncc(C(F)(F)F)cc2Cl)c1 | 72.6 to 72.7 °C
7 | COc1cc2[nH]c(=O)c(-c3csc(-c4ccncc4)n3)c(N)c2cc1OC | > 250 °C
8 | OCC1=C(c2cc3ccccc3s2)N2CCN=C2S1 | 138 to 140 °C
9 | Cn1c(=O)n(CCO)n(CCO)c1=O | 126 to 127 °C
10 | CC[C@H]1c2cc(F)ccc2-c2ccccc2N1C(=O)c1ccc(O)cc1 | 103 to 104 °C
11 | CC(C)N1CC2(COc3ccc([N+](=O)[O-])cc3OC2)OC1c1ccccc1 (centres undefined) | 151 to 152 °C
12 | CC(=NO)C(=O)c1ccccc1OCc1ccccc1 | 78 to 80 °C
13 | O=c1nc(O)ccc2ccccc12 | 129 to 131 °C
14 | COc1ccc(-c2cc(C(=O)O)c(=O)n(CC3CC3)n2)cc1 | 154 to 155 °C
15 | CN1CCN(c2cccc3ccc(NC(=O)C(F)(F)F)cc23)CC1 | 159 to 160 °C
16 | CC(C)(c1ccccc1)c1cccc(S(=O)(=O)Cl)c1 | 47.5 to 49 °C
17 | C=CCc1cc(C(=O)OCC)ccc1OCC1(O)CN2CCC1CC2 (centres undefined) | 143 to 145 °C
18 | COC(=O)Cn1c(Cl)c(Cl)c(Cl)c1Cl | 115 °C
19 | O=C(OC1CCCCC1)c1ncn2c1[C@@H]1CCN1C(=O)c1c(I)cccc1-2 | 124 to 125 °C
20 | CCC1(CC)OC(c2ccc(S(C)(=O)=O)cc2)=C(c2cccc(Cl)c2)C1=O | 131 to 132 °C
21 | CCOC(C[C@@H](CO)Cn1cnc2c(Cl)nc(N)nc21)OCC | 156 to 158 °C
22 | O=[N+]([O-])c1cc(CO)cc([N+](=O)[O-])c1-c1ccc(O)cc1 | 156 to 158 °C
23 | O=C1CCC(CCO)(c2ccc(F)c(F)c2)CN1Cc1ccccc1 (centres undefined) | 153 to 154 °C

Row | Structure (SMILES) | melting point
24 | CCCNC(=O)c1nc2n(c1C)CCc1ccccc1C2OC1CCN(C)CC1 (centres undefined) | 60 °C
25 | CC1(C)CC(=O)N(CCCCN2CCN(c3nc(C(C)(C)C)cs3)CC2)C(=O)C1 | 93 to 94 °C
26 | COC(=O)c1ccccc1-c1cc(-c2cccc(C(F)(F)F)c2)no1 | 46 to 48 °C
27 | CN(c1cccc2cc(-c3ncc(CCc4n[nH]c(=O)o4)s3)[nH]c12)S(=O)(=O)c1cccs1 | 255 to 256 °C
28 | CCCCCS(=O)(=O)NC(=O)CCc1ccc(OCCOCCOC)cc1Oc1ncc(C(F)(F)F)cc1Cl | 76 to 77.5 °C
29 | COc1ccc(Oc2ccccc2)cc1NC(=O)c1ccn2c1CSC2c1cccnc1 (centres undefined) | 158 °C
30 | O=S(=O)(NN=C(Cl)c1ccc(F)cc1Cl)c1ccccc1 | 133 to 135 °C
31 | COc1cc(NC(=O)OCCCN2CCN(c3ccc(Cl)cc3)CC2)cc(OC)c1OC | 174 °C
32 | CCCc1nc(Br)c(C(=O)O)n1Cc1ccc(-c2ccccc2S(=O)(=O)NC(=O)NCc2ccccc2)cc1 | 128 °C
33 | O=C(O)c1ccc(CCCC2SCC(=O)N2CCC2(O)C3CCCC2CCC3)cc1 (centres undefined) | 176 to 178 °C
34 | CCCCC(C)C(=O)C=P(c1ccccc1)(c1ccccc1)c1ccccc1 (centres undefined) | 107 to 109 °C
35 | Cc1cc(C(=O)CC(O)(c2cc(Cl)cc(Cl)c2)C(F)(F)F)ccc1C(=O)O (centres undefined) | 114 to 115 °C
36 | CCOC(=O)C1=CC(OC)(C(C)(C)C)N(c2ccc(Cl)cc2Cl)N1 (centres undefined) | 130 to 133 °C
37 | Nc1ccccc1C(=O)OC1CCN(Cc2ccccc2)CC1 | 87 to 88 °C
38 | Cc1c2n(c(=O)c3cc(OC(=O)CN)cc(OC(=O)CN)c13)CCCC2 | 163 to 164 °C
39 | O=C(NC1CC2CC(N3CCN(c4ccccc4)CC3)CC2C1)c1ccccc1 (centres undefined) | 211 to 212 °C
40 | CC(C(=O)O)c1ccc2c(c1)C(=O)Cc1ccc(F)cc1S2 (centres undefined) | 148 °C
41 | CC(=O)NCCCC(=O)c1ccccc1 | 92 to 95 °C
42 | CON1C=C2N=NC3=C(N2C1)N(c1ccccc1Cl)CC(C)=C3 | 198 to 200 °C
43 | COc1ccc(-c2ccc3cnc(Nc4ccc(N5CCN(C)CC5)cc4OC)nn23)cn1 | 170 to 173 °C
44 | CC(CO)(CO)NS(=O)(=O)c1cccc(NC(=O)c2cnn3c(C(F)(F)F)cc(-c4ccc(C(F)(F)F)cc4)nc23)c1 | 248 °C
45 | CCOC(=O)N1CCN(c2nc(N(C(C)=O)C3CC3)ccc2N)CC1 | 149 to 150 °C
46 | O=C1CC(C(=O)O)NN1 (centres undefined) | 188 to 190 °C

Row | Structure (SMILES) | melting point
47 | CC1(C)[C@@H](CS(=O)(=O)c2ccc(S(C)(=O)=O)cc2)CC[C@@]1(C)NCC(=O)N1C[C@@H](F)C[C@H]1C#N | 163 to 166 °C
48 | CSC(=O)N(C)c1nnc(-c2cccnc2)s1 | 192 to 194 °C
49 | O=C(OCC=Cc1ccccc1)C(=C1NCCCS1)[N+](=O)[O-] | 115 to 116 °C
50 | c1ccc(COc2ccc(Nc3ccn(-c4ccccc4)n3)cc2)cc1 | 145 to 146 °C
51 | COC(=O)Nc1ccc(NC(=O)CBr)c([N+](=O)[O-])c1 | 160 to 162 °C
52 | CNC1([C@@H]2CCN(c3cc(N)c4c(=O)c(C(=O)O)cn([C@@H]5C[C@@H]5F)c4c3C)C2)CC1 | 129 to 131 °C
53 | CCc1nc(OC)c(NC(=O)N2CCN(c3cc(OC)c(OC)c(OC)c3)CC2)cc1C(=O)Nc1cc(CO)cc(Nc2c3ccccc3nc3ccccc23)c1 | 190 to 192 °C
54 | CN(C)S(=O)(=O)c1ccc(Oc2ccc([N+](=O)[O-])cc2C#N)cc1 | 222 to 223 °C
55 | CCCCC[C@@H](CNC(=O)Nc1c(OC(C)C)ccc2c1CCCC2)c1cccc2c1OCO2 | 115 °C
56 | Cc1c(NC(=O)OC(C)(C)C)cnn1-c1cccnc1 | 89 to 91 °C
57 | COc1cc(Cc2cnc(N)nc2N)c2c(c1OC)OC(C)C2 (centres undefined) | 216 to 219 °C
58 | Cn1c2ccc(F)cc2c(=O)n2nc(C(=O)O)cc12 | 295 °C
59 | O=c1c2ccc(Cl)cc2ncn1CCCCn1ccnc1 | 123 to 125 °C
60 | CCOC(=O)c1c(Nc2cc(F)ccc2N)sc2ccccc12 | 141 to 142 °C
61 | Clc1ccc(CC2(c3ccccc3)OCC(CN3CCCCC3)O2)cc1 (centres undefined) | 58 °C
62 | O=C1CCC(N2Cc3cc(CNC(=O)Nc4ccc(Cl)c(C(F)(F)F)c4)ccc3C2=O)C(=O)N1 (centres undefined) | 261 to 263 °C
63 | Clc1cccc(Nc2ncnc3[nH]nc(NCc4ccc(-c5cncs5)cc4)c23)c1 | 235 °C
64 | O=C1OC(c2ccccc2)=NC1=Cc1c(O)ccc2ccccc12 | 228 to 229 °C
65 | CCNC(=O)Nc1ccc(Oc2ccc3nc(COc4ccc(CC5SC(=O)NC5=O)cc4)n(C)c3c2)cc1 (centres undefined) | 227 to 230 °C
66 | Cc1ccc(-c2c(NS(=O)(=O)c3ccc(C(C)(C)C)cc3)ncnc2OCCOc2ncc(C=O)cn2)cc1 | 191 to 193 °C
67 | CN(C)C(=O)N(COCCCl)c1ccc(C(F)(F)F)cc1 | 39 °C
68 | CCCc1nc(C(C)(C)O)c(C(=O)OC2OC(=O)c3ccccc32)n1Cc1ccc(-c2ccccc2C(=O)O)cc1 (centres undefined) | 142 to 144 °C
69 | CS(=O)(=O)NN(c1ccc([N+](=O)[O-])cc1N)S(=O)(=O)c1cccc(S(=O)(=O)F)c1 | 204 to 209 °C
